Reference: patent publication US4062950A, “Amino sugar derivatives” (priority 1973, dated 1977)

Molecular target: T1, saccharase (Sus scrofa, UniProt P56729)
T1 construct: sucrase subunit of the sucrase-isomaltase complex hydrolyses sucrose
Test: In vitro saccharase test
Format: biochemical, pig
Conditions: isolated isomer, Example 19
Procedure: One saccharase inhibitor unit (SIU) is defined as the amount of inhibitor which inhibits two saccharase units to the extent of 50%. One saccharase unit (SU) is the amount of enzyme which under the test conditions specified splits 1 μmol of sucrose to glucose and fructose per minute. The μmols of glucose formed are determined quantitatively by means of the glucose oxidase reaction under conditions under which a further splitting of the sucrose by the saccharase no longer takes place. To carry out the test, 0.05 ml of solubilized saccharase [from the mucous membrane of the small intestine of the pig, according to B. Borgastrom, A. Dahlquist, Acta Chem. Scand. 12, (1958), page 1,997], diluted with 0.1 M sodium maleate buffer of pH 6.0 to a SU content adjusted to 0.12 SU is mixed with 0-20 μg of inhibitor or 0-20 μl of the solution to be tested and brought up to 0.1 ml with 0.1 M sodium maleate buffer of pH 6.0. The mixture is equilibrated for 10 minutes at 35° C and 0.1 ml of an 0.05 M sucrose solution in 0.1 M sodium maleate buffer of pH 6.0, pre-warmed to 35° C, is then added. The mixture is incubated for 20 minutes at 35° C, the saccharase reaction is stopped by addition of 1 ml of glucose oxidase reagent, and the incubation is continued for a further 30 minutes at 35° C. (The glucose oxidase reagent is prepared by dissolving 2 mg of glucose oxidase, Boehringer, No. 15,423, in 100 ml of 0.565 M tris-HCl buffer of pH 7.0 and subsequently adding 1 ml of detergent solution (2 g of Triton X 100 + 8 g of 95% strength and analytical grade ethanol), 1 ml of dianisidine solution (260 mg of o-dianisidine. 2HCl in 20 ml of H2 O) and 0.5 ml of 0.1% strength aqueous peroxidase solution, Boehringer, No. 15,302). Thereafter, 1 ml of 50% strength H2 SO4 is added and a measurement carried out at 545 nm against a corresponding blank. To evaluate the results, the percentage inhibition of the saccharase employed is calculated and converted to SIU/g of SIU/liter from the 50% inhibition point, using a glucose calibration curve.

T1 sequence (P56729 with tags, fused parts or gaps): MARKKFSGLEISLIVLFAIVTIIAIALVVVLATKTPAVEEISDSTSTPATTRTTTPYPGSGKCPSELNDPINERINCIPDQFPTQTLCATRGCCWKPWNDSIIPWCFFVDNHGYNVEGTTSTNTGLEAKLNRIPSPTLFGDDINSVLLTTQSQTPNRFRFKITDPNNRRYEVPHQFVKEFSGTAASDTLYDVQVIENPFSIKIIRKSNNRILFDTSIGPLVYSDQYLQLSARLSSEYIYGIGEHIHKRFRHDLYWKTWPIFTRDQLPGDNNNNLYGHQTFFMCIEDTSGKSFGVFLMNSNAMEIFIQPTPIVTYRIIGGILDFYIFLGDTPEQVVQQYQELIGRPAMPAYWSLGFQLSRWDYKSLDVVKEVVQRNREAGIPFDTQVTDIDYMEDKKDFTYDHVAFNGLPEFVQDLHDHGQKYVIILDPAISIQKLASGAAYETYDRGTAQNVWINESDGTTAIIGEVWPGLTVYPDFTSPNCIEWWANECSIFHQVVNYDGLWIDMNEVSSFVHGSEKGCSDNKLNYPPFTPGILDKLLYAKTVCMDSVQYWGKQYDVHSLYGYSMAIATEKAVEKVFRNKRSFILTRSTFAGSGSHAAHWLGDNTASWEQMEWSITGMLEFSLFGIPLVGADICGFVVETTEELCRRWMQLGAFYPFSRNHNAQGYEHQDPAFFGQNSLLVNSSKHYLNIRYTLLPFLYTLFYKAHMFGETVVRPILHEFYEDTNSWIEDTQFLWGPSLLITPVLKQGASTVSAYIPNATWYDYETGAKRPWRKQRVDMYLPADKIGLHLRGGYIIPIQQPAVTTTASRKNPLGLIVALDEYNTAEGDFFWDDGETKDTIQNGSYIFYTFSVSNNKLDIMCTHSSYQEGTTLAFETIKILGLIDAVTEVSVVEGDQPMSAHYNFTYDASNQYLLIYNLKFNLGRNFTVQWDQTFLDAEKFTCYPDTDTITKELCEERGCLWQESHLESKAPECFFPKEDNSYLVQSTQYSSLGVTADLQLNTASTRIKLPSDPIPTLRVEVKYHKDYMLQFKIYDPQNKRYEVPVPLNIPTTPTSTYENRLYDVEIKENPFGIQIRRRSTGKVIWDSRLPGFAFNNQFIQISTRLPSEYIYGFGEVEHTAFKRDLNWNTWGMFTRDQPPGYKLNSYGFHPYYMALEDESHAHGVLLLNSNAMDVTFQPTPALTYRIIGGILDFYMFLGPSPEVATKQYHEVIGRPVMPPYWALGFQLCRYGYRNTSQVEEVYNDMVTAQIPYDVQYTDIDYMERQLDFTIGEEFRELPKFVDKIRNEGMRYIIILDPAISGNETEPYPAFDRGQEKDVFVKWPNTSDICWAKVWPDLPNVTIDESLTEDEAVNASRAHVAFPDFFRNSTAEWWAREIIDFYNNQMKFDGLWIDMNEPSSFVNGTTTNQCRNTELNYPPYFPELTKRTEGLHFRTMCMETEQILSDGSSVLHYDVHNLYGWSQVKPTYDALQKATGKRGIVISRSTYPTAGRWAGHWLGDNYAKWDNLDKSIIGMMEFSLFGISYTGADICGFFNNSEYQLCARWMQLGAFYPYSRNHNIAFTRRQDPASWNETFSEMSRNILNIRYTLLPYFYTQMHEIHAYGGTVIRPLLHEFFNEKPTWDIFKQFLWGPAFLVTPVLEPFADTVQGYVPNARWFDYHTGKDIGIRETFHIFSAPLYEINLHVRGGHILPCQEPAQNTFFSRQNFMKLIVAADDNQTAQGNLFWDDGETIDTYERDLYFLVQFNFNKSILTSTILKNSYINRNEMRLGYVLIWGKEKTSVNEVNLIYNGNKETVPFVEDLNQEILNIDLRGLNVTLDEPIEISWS

in vitro saccharase inhibiting activity: 19000 SIU/g
SMILES: C[C@H]1O[C@H](O[C@H]2[C@H](O)[C@@H](O)[C@@H](O[C@H]3[C@H](O)[C@@H](O)[C@@H](O[C@H]4[C@H](O)[C@@H](O)C(O)O[C@@H]4CO)O[C@@H]3CO)O[C@@H]2CO)[C@H](O)[C@@H](O)[C@@H]1N[C@H]1C=C(CO)[C@@H](O)[C@H](O)[C@H]1O (stereo partly drawn) [Formula IV, O-{4,6-bisdesoxy-4-[1S-(1,4,6/5)-4,5,6-trihydroxy-3-hydroxymethylcyclohex-2-en-1-ylamino]-α-D-glucopyranosyl}-(1→4)-O-α-D-glucopyranosyl-(1→4)-O-α-D-glucopyranosyl-(1→4)-D-glycopyranose]
